From patent US9416181B2, “Compositions for cell culture and methods of using the same” (AbbVie Inc., priority 2013, dated 2016)
“Also recorded” adds a separate entry of the source.

Legend:
[1] = test system: Cell Line 3 (CHO) expressing DVD1; assay: Cell culture performance, Cell Line 3 shake flask culture; conditions: shaker
[2] = test system: Cell Line 1 (CHO) expressing Antibody 1; assay: Acidic species variants (WCX-10) of Antibody 1, Cell Line 1 shake flask fed-batch culture; assay type: cell-based, Chinese Hamster; conditions: shaker; for reduction of total acidic species content, absolute value: vs unsupplemented control
Experimental: (§1) A recombinant Chinese Hamster Ovary (CHO) cell line (Cell Line 1) expressing a humanized monoclonal antibody (Antibody 1) was evaluated in 2 different cultures vessels (shaker flasks and 3 L laboratory-scale bioreactors). The cell line was of CHO DUX-B11 origin based on a DHFR (dihydrofolate reductase) expression system and cultured in a chemically defined basal media, and fed periodically with a chemically-defined feed media (CDFM). The media utilized throughout all of the experiments were chemically-defined, and both animal-component free, and protein-free. Each of the respective media were supplemented as needed with selected bioflavonoids to evaluate for their potential impact on the resulting acidic species profile. In preparation of the cultures, the cell lines were serially expanded through separate seed train inoculums to generate enough cells for inoculation. Process conditions utilized during the cultures were slightly different depending on the culture scale, but similar within each scale to the respective non-bioflavonoid supplemented control conditions. All bioflavonoids utilized were purchased from Sigma-Aldrich (St. Louis, Mo.).
Samples were analyzed using an HPLC system equipped with a ProPac WCX-10 analytical column (Thermo Scientific, Sunnyvale, Calif.). Approximately 100 μg of sample was loaded in 6% Buffer B (10 mM sodium phosphate, 500 mM NaCl, pH 5.5) and 94% Buffer A (10 mM sodium phosphate, pH 7.5). The column was run at a flow rate of 1.0 mL/min. The protein was eluted from the column by increasing the buffer B composition from 6% to 16% over 20 minutes. The protein peaks were measured using UV absorbance at 280 nm as the peaks eluted from the column. The column was regenerated using 100% buffer B followed be a re-equilibration period using initial condition before the injection of the next sample. Peaks eluting before the main peak were termed “acidic peaks” and peaks eluting after the main peak were called “basic peaks” (FIG. 2).
In this Example, EGCG was added into the feed (cell culture medium) at the concentration range of 5 mg/L (low), 20 mg/L (mid) and 50 mg/L (high) in a shaker experiment to determine the impact of EGCG on product quality of a humanized monoclonal antibody (Antibody 1). Detailed cell culture conditions are as described in Table 1.
However, it was not clear whether or not additional bioflavonoids would also have the same effects. To evaluate the impact of alternative bioflavonoids, fed-batch shake flask cultures were initiated with CDFM supplemented with 3 different concentrations of genistein, rutin, and naringin, in addition to EGCG. Cell growth, viability, as well as titers and acidic species variants were measured.
Charge Heterogeneity via Weak Cation Exchange Chromatography-Samples were analyzed using an HPLC system equipped with a ProPac WCX-10 analytical column (Thermo Scientific, Sunnyvale, Calif.). Approximately 100 μg of sample was loaded in 6% Buffer B (10 mM sodium phosphate, 500 mM NaCl, pH 5.5) and 94% Buffer A (10 mM sodium phosphate, pH 7.5). The column was run at a flow rate of 1.0 mL/min. The protein was eluted from the column by increasing the buffer B composition from 6% to 16% over 20 minutes. The protein peaks were measured using UV absorbance at 280 nm as the peaks eluted from the column. The column was regenerated using 100% buffer B followed be a re-equilibration period using initial condition before the injection of the next sample. Peaks eluting before the main peak were termed ‘acidic peaks’ and peaks eluting after the main peak were called ‘basic peaks’ (FIG. 2).
To evaluate the impact of other bioflavonoids, fed-batch shake flask cultures were initiated with CDFM supplemented with multiple concentrations of rutin. Cell growth, viability, as well as titers and acidic species variants were measured and shown in FIGS. 14 and 15, respectively.

[3] = test system: Cell Line 1 (CHO) expressing Antibody 1; assay: Cell culture performance (cell growth, viability, titer), Cell Line 1 3 L bioreactor fed-batch culture; assay type: cell-based, Chinese Hamster
Experimental: as §1
Viable cell density (VCD) and cell viability values were measured through trypan blue exclusion via Cedex automated cell counters (Roche Applied Science, Indianapolis, Ind.), glucose and lactate values were measured with a ABL-805 (Radiometer Medical, Denmark) blood gas analyzer. Offline pH, dissolved oxygen (DO), and pCO2 measurements were performed as needed with an ABL-805 (Radiometer Medical, Denmark) blood gas analyzer. Osmolality was measured as needed on a Multi-Osmette 2430 osmometer (Precision Systems, Natick, Mass.).
Antibody titers were measured from crude cell culture harvests on a Poros A™ (Life Technologies, Carlsbad, Calif.) affinity column using an HPLC system operating with a low pH, step elution gradient with detection at 280 nm. Absolute concentrations were assigned with respect to reference standard calibration curves.
In the next experiment, lab-scale bioreactors were used to (1) confirm the shaker experiment results and (2) to determine whether higher concentration range of EGCG is suitable for supplementing into cell culture. EGCG was added to the feed of the batch culture at the concentrations of 20 mg/L (mid), 50 mg/L (high) and 125 mg/L (high+) and 250 mg/L (high++) in this reactor experiment.
Cell Line 1 was evaluated in larger-scale feed batch cultures with the feed media supplemented with various bioflavonoids. […] By contrast, cell growth performance was slightly different for the 0.1 g/L EGCG supplemented condition. […] However, the cell viability remained high at 0.1 g/L EGCG. All cultures were successfully harvested on Day 15 post-inoculation. The harvest titers measured from the evaluated cultures were similar.
Cell Line 1 was also evaluated in laboratory-scale fedbatch cultures with the feed media supplemented with various bioflavonoids. […] Cell growth performance was slightly different however with the 0.1 g/L EGCG supplemented condition. […] All cultures were able to be successfully harvested on Day 15 post-inoculation.

O=C(O[C@@H]1Cc2c(O)cc(O)cc2O[C@@H]1c1cc(O)c(O)c(O)c1)c1cc(O)c(O)c(O)c1 [EGCG, epigallocatechin gallate]
growth profile, viability and productivity vs control ([1]; 0.02, 0.05 and 0.1 g/L in feed): performed very similarly to control cultures | viability decrease compared to control ([1]; 0.2 g/L in feed): 15% | reduction of total acidic species content, relative value ([2]; 5 mg/L in feed): 5% | reduction of total acidic species content, absolute value ([2]; 5 mg/L in feed): 1% | reduction of total acidic species content, relative value ([2]; 20 mg/L in feed): 10% | reduction of total acidic species content, absolute value ([2]; 20 mg/L in feed): 2% | reduction of total acidic species content, relative value ([2]; 50 mg/L in feed): 35% | reduction of total acidic species content, absolute value ([2]; 50 mg/L in feed): 7% | peak viable cell density ([3]; 0.05 g/L in CDFM, bioreactor, Day 8): approximately 12×10^6 cells/mL | harvest titer vs control ([3]; 0.05 g/L in CDFM, bioreactor, Day 15 harvest): outperforming the control condition by a nominal amount; also recorded: outperformed the control condition by a nominal amount | cell growth profile vs unsupplemented control ([3]; 0.1 g/L in CDFM, bioreactor): lower than the unsupplemented control culture | cell viability ([3]; 0.1 g/L in CDFM, bioreactor): remained high | impact on cell culture performance ([3]; 250 mg/L in feed, bioreactor): reduction in early cell culture viability and titer reduction | impact on cell culture performance (cell growth, viability, titer) ([3]; 20, 50 and 125 mg/L in 1.5×JCL5 feed media, bioreactor): no impact on cell culture performance | concentration (turning point) at which peak viable cell density began to drop lower than unsupplemented control ([3]; Cell Line 1): 125 µg/mL
